Values of other authors, collected in EP0292255A2, “Inhibitor of ribonucleotide reductase” (Merck & Co., Inc., priority 1987, dated 1988).
Ends that are not written are not given here.

Test system: ribonucleotide reductase enzyme of herpes simplex virus
Details: result in words, from Nature 321:439-441 and 441-443 (1986)

Substance	inhibition of the activity of the ribonucleotide reductase enzyme of herpes simplex virus in vitro
Tyr Ala Gly Ala Val Val Asn Asp Leu (YAGAVVNDL; printed: Tyr Ala Gly Ala Val Val Asn Asp Leu) [nonapeptide disclosed by Dutia et al. and Cohen et al]	inhibited
YGAVVNDL [8-desalanine homolog of the nonapeptide, disclosed by Dutia et al]	inhibited
